Assay results from US8592175B2, “Nitroreductase enzymatic substrates” (bioMérieux, S.A., priority 2009, dated 2013).

Assays:
Test in all cases: Color, fluorescence and growth of colonies on Columbia medium with nitroreductase substrate
Type in all cases: cell-based
[1] = test system: Bacillus subtilis NCTC 9 372; set-up: key to Growth: NG: no growth; 0.5: low growth; 1: moderate growth; 2: good growth; key to Fluo.: fluorescence of the colonies / Col.: color of the colonies: —: no color/fluorescence; conditions: 40 mg substrate in 400 ml Columbia medium, 24 hours at 37° C.; for Col.: color of the colonies: examined visually; for Fluo.: fluorescence of the colonies: UV lamp at 365 nm
Experimental: (§1) 40 mg of each of the substrates were dissolved in 4 ml of dimethylsulfoxide and added to 400 ml of previously autoclaved Columbia medium. The 5 media were distributed in Petri dishes 90 mm in diameter at the rate of 20 ml per dish. Seventeen strains of microorganisms obtained from collections and belonging to various species of bacteria and yeasts are inoculated as spots of about 10 000 colony forming units. The media are incubated for 24 hours at 37° C. and then the colonies formed are examined visually and under a UV lamp at 365 nm.

[2] = test system: Enterococcus faecium NCTC 7 171; set-up: key to Growth: NG: no growth; 0.5: low growth; 1: moderate growth; 2: good growth; key to Fluo.: fluorescence of the colonies / Col.: color of the colonies: —: no color/fluorescence; conditions: 40 mg substrate in 400 ml Columbia medium, 24 hours at 37° C.; for Fluo.: fluorescence of the colonies: UV lamp at 365 nm; for Col.: color of the colonies: examined visually
Experimental: as §1

[3] = test system: Candida glabrata NCPF 3 943; set-up: key to Growth: NG: no growth; 0.5: low growth; 1: moderate growth; 2: good growth; key to Fluo.: fluorescence of the colonies / Col.: color of the colonies: —: no color/fluorescence; conditions: 40 mg substrate in 400 ml Columbia medium, 24 hours at 37° C.; for Col.: color of the colonies: examined visually; for Fluo.: fluorescence of the colonies: UV lamp at 365 nm
Experimental: as §1

[4] = test system: Yersinia enterocolitica NCTC 11 176; set-up: key to Growth: NG: no growth; 0.5: low growth; 1: moderate growth; 2: good growth; key to Fluo.: fluorescence of the colonies / Col.: color of the colonies: —: no color/fluorescence; conditions: 40 mg substrate in 400 ml Columbia medium, 24 hours at 37° C.; for Col.: color of the colonies: examined visually; for Fluo.: fluorescence of the colonies: UV lamp at 365 nm
Experimental: as §1

[5] = test system: Staphylococcus aureus NCTC 6 571; set-up: key to Growth: NG: no growth; 0.5: low growth; 1: moderate growth; 2: good growth; key to Fluo.: fluorescence of the colonies / Col.: color of the colonies: —: no color/fluorescence; conditions: 40 mg substrate in 400 ml Columbia medium, 24 hours at 37° C.; for Col.: color of the colonies: examined visually; for Fluo.: fluorescence of the colonies: UV lamp at 365 nm
Experimental: as §1

[6] = test system: Staphylococcus aureus NCTC 11 939; set-up: key to Growth: NG: no growth; 0.5: low growth; 1: moderate growth; 2: good growth; key to Fluo.: fluorescence of the colonies / Col.: color of the colonies: —: no color/fluorescence; conditions: 40 mg substrate in 400 ml Columbia medium, 24 hours at 37° C.; for Col.: color of the colonies: examined visually; for Fluo.: fluorescence of the colonies: UV lamp at 365 nm
Experimental: as §1

[7] = test system: Providencia rettgeri NCTC 7 475; set-up: key to Growth: NG: no growth; 0.5: low growth; 1: moderate growth; 2: good growth; key to Fluo.: fluorescence of the colonies / Col.: color of the colonies: —: no color/fluorescence; conditions: 40 mg substrate in 400 ml Columbia medium, 24 hours at 37° C.; for Col.: color of the colonies: examined visually; for Fluo.: fluorescence of the colonies: UV lamp at 365 nm
Experimental: as §1

[8] = test system: Candida albicans ATCC 90 028; set-up: key to Growth: NG: no growth; 0.5: low growth; 1: moderate growth; 2: good growth; key to Fluo.: fluorescence of the colonies / Col.: color of the colonies: —: no color/fluorescence; conditions: 40 mg substrate in 400 ml Columbia medium, 24 hours at 37° C.; for Col.: color of the colonies: examined visually; for Fluo.: fluorescence of the colonies: UV lamp at 365 nm
Experimental: as §1

[9] = test system: Staphylococcus epidermidis NCTC 11 047; set-up: key to Growth: NG: no growth; 0.5: low growth; 1: moderate growth; 2: good growth; key to Fluo.: fluorescence of the colonies / Col.: color of the colonies: —: no color/fluorescence; conditions: 40 mg substrate in 400 ml Columbia medium, 24 hours at 37° C.; for Col.: color of the colonies: examined visually; for Fluo.: fluorescence of the colonies: UV lamp at 365 nm
Experimental: as §1

[10] = test system: Pseudomonas aeruginosa NCTC 10 662; set-up: key to Growth: NG: no growth; 0.5: low growth; 1: moderate growth; 2: good growth; key to Fluo.: fluorescence of the colonies / Col.: color of the colonies: —: no color/fluorescence; conditions: 40 mg substrate in 400 ml Columbia medium, 24 hours at 37° C.; for Col.: color of the colonies: examined visually; for Fluo.: fluorescence of the colonies: UV lamp at 365 nm
Experimental: as §1

[11] = test system: Listeria monocytogenes NCTC 11 994; set-up: key to Growth: NG: no growth; 0.5: low growth; 1: moderate growth; 2: good growth; key to Fluo.: fluorescence of the colonies / Col.: color of the colonies: —: no color/fluorescence; conditions: 40 mg substrate in 400 ml Columbia medium, 24 hours at 37° C.; for Fluo.: fluorescence of the colonies: UV lamp at 365 nm; for Col.: color of the colonies: examined visually
Experimental: as §1

[12] = test system: Salmonella typhimurium NCTC 74; set-up: key to Growth: NG: no growth; 0.5: low growth; 1: moderate growth; 2: good growth; key to Fluo.: fluorescence of the colonies / Col.: color of the colonies: —: no color/fluorescence; conditions: 40 mg substrate in 400 ml Columbia medium, 24 hours at 37° C.; for Fluo.: fluorescence of the colonies: UV lamp at 365 nm; for Col.: color of the colonies: examined visually
Experimental: as §1

[13] = test system: Enterococcus faecalis NCTC 775; set-up: key to Growth: NG: no growth; 0.5: low growth; 1: moderate growth; 2: good growth; key to Fluo.: fluorescence of the colonies / Col.: color of the colonies: —: no color/fluorescence; conditions: 40 mg substrate in 400 ml Columbia medium, 24 hours at 37° C.; for Fluo.: fluorescence of the colonies: UV lamp at 365 nm
Experimental: as §1

[14] = test system: Streptococcus pyogenes NCTC 8 306; set-up: key to Growth: NG: no growth; 0.5: low growth; 1: moderate growth; 2: good growth; key to Fluo.: fluorescence of the colonies / Col.: color of the colonies: —: no color/fluorescence; conditions: 40 mg substrate in 400 ml Columbia medium, 24 hours at 37° C.; for Col.: color of the colonies: examined visually; for Fluo.: fluorescence of the colonies: UV lamp at 365 nm
Experimental: as §1

[15] = test system: Serratia marcescens NCTC 10 211; set-up: key to Growth: NG: no growth; 0.5: low growth; 1: moderate growth; 2: good growth; key to Col.: color of the colonies: —: no color/fluorescence; conditions: 40 mg substrate in 400 ml Columbia medium, 24 hours at 37° C.
Experimental: as §1

[16] = test system: Enterobacter cloacae NCTC 11 936; set-up: key to Growth: NG: no growth; 0.5: low growth; 1: moderate growth; 2: good growth; key to Col.: color of the colonies: —: no color/fluorescence; conditions: 40 mg substrate in 400 ml Columbia medium, 24 hours at 37° C.; for Col.: color of the colonies: examined visually
Experimental: as §1

[17] = test system: Escherichia coli NCTC 10 418; set-up: key to Growth: NG: no growth; 0.5: low growth; 1: moderate growth; 2: good growth; key to Col.: color of the colonies: —: no color/fluorescence; conditions: 40 mg substrate in 400 ml Columbia medium, 24 hours at 37° C.
Experimental: as §1

2-(4′-nitrophenyl)butadienyl-N-methylquinolinium iodide [2NPBMQ^+I]
1: Growth [2] | Growth [4] | Growth [9] | Growth [11] | Growth [12] | Growth [13]
—: Col.: color of the colonies [1] | Col.: color of the colonies [3] | Col.: color of the colonies [5] | Col.: color of the colonies [6] | Col.: color of the colonies [8] | Col.: color of the colonies [9] | Col.: color of the colonies [14]
0.5: Growth [1] | Growth [14]
2: Growth [7] | Growth [10] | Growth [15] | Growth [16] | Growth [17]
NG: Growth [3] | Growth [5] | Growth [6] | Growth [8]
Orange: Col.: color of the colonies [7] | Col.: color of the colonies [10] | Col.: color of the colonies [16]

C[n+]1c(C=Cc2ccc([N+](=O)[O-])cc2)ccc2ccccc21.[I-] [2NSMQ^+I, 2-(4′-nitrostyryl)-N-methylquinolinium iodide]
1: Growth [1] | Growth [2] | Growth [11] | Growth [13]
0.5: Growth [8] | Growth [9] | Growth [14]
Rust: Col.: color of the colonies [4] | Col.: color of the colonies [7]
NG: Growth [3] | Growth [5] | Growth [6]
—: Col.: color of the colonies [3] | Col.: color of the colonies [5] | Col.: color of the colonies [6] | Col.: color of the colonies [8] | Col.: color of the colonies [9]
2: Growth [4] | Growth [7] | Growth [10] | Growth [12] | Growth [15] | Growth [16] | Growth [17]

O=[N+]([O-])c1ccc(C=Cc2ccc3ccccc3n2)cc1 [2NSQ, 2-(4′-nitrostyryl)quinoline]
1: Growth [1] | Growth [2] | Growth [3] | Growth [5] | Growth [6] | Growth [9] | Growth [11] | Growth [13] | Growth [14]
2: Growth [4] | Growth [7] | Growth [10] | Growth [12] | Growth [15] | Growth [16] | Growth [17]
—: Fluo.: fluorescence of the colonies [1] | Col.: color of the colonies [1] | Fluo.: fluorescence of the colonies [2] | Col.: color of the colonies [2] | Fluo.: fluorescence of the colonies [3] | Col.: color of the colonies [3] | Fluo.: fluorescence of the colonies [4] | Col.: color of the colonies [4] | Fluo.: fluorescence of the colonies [5] | Col.: color of the colonies [5] | Fluo.: fluorescence of the colonies [6] | Col.: color of the colonies [6] | Fluo.: fluorescence of the colonies [7] | Col.: color of the colonies [7] | Fluo.: fluorescence of the colonies [8] | Col.: color of the colonies [8] | Fluo.: fluorescence of the colonies [9] | Col.: color of the colonies [9] | Fluo.: fluorescence of the colonies [10] | Col.: color of the colonies [10] | Fluo.: fluorescence of the colonies [11] | Col.: color of the colonies [11] | Fluo.: fluorescence of the colonies [12] | Col.: color of the colonies [12] | Fluo.: fluorescence of the colonies [13] | Col.: color of the colonies ([13]; examined visually) | Fluo.: fluorescence of the colonies [14] | Col.: color of the colonies [14] | Col.: color of the colonies ([15]; examined visually) | Col.: color of the colonies [16] | Col.: color of the colonies ([17]; examined visually)
0.5: Growth [8]

COc1cc([N+](=O)[O-])ccc1C=Cc1cc[n+](C)c2ccccc12.[I-] [4NMSMQ^+I, 4-(4′-nitro-2′-methoxystyryl)-N-methylquinolinium iodide]
—: Fluo.: fluorescence of the colonies [1] | Fluo.: fluorescence of the colonies [2] | Col.: color of the colonies [2] | Fluo.: fluorescence of the colonies [3] | Col.: color of the colonies [3] | Fluo.: fluorescence of the colonies [4] | Col.: color of the colonies [4] | Fluo.: fluorescence of the colonies [5] | Fluo.: fluorescence of the colonies [6] | Fluo.: fluorescence of the colonies [7] | Col.: color of the colonies [7] | Fluo.: fluorescence of the colonies [8] | Col.: color of the colonies [8] | Fluo.: fluorescence of the colonies [9] | Fluo.: fluorescence of the colonies [10] | Col.: color of the colonies [10] | Fluo.: fluorescence of the colonies [11] | Col.: color of the colonies [11] | Fluo.: fluorescence of the colonies [12] | Col.: color of the colonies [12] | Fluo.: fluorescence of the colonies [13] | Fluo.: fluorescence of the colonies [14] | Col.: color of the colonies [14]
0.5: Growth [2] | Growth [7] | Growth [8]
1: Growth [10] | Growth [12] | Growth [14]
NG: Growth [3]
2: Growth [1] | Growth [4] | Growth [5] | Growth [6] | Growth [9] | Growth [11] | Growth [13] | Growth [15] | Growth [16] | Growth [17]
